According to patent US8722626B2, “Method for controlling fibrosis and other pathological deposits in tissues comprising administering a GHRP-6 composition” (Centro de Ingenieria Genetica y Biotecnologia, priority 2006, dated 2014):
Marks after values point to notes of the source that are not given here.

Key:
[1] = test system: hepatic fibrosis in male Wistar rats (bile duct ligation); experiment: Reverting hepatic fibrosis induced by ligation of the common bile duct in rats (Example 1); assay type: in vivo, rat; design: SODt (oxidative stress marker) / Catalase (oxidative stress marker) / HPT (oxidative stress marker) / MDA (oxidative stress marker): unit not given here; conditions: for Grade 0 (null) hepatic fibrosis, animals per group / Grade 1 (moderate) hepatic fibrosis, animals per group / Grade 2 (limited) hepatic fibrosis, animals per group / Grade 3 (severe) hepatic fibrosis, animals per group / Grade 4 (very severe) hepatic fibrosis, animals per group: three weeks; for GGT serum level / GOT serum level / GPT serum level / Content of OH—P (hydroxiproline) in liver: end of three weeks of treatment; for Catalase (oxidative stress marker) / HPT (oxidative stress marker) / MDA (oxidative stress marker) / SODt (oxidative stress marker): liver samples, end of third week of treatment
Protocol: The present experiment was conducted to evaluate the effect of the GHRP-6-based pharmaceutical composition on reverting the hepatic fibrosis in rats. Hepatic fibrosis was induced in male Wistar rats of 250 g of average body weight by ligating the external bile duct. For this purpose, rats were anesthetized with a ketamine/xylazine combination and subjected to laparotomy to expose the common bile duct. The duct was double-ligated with chromium catgut 4-0. After surgery, animals were randomly distributed into 3 experimental groups of 20 rats each: (1) Control placebo group, receiving physiological saline solution, (2) Group receiving the GHRP-6 at a 100 μg/kg dosage, and (3) Group receiving the GHRP-6 at a 400 μg/kg dosage. Treatments were daily administered during three weeks after inducing the fibrosis of the liver parenchyma. All the treatments were started three weeks after the appearance of fibrosis. The follow up of the hepatic damage was conducted by weekly ultrasound examinations of the projection area of this organ, the progress of serum levels of GOT and GPT transaminases, gamma glutamyl transferase (GGT) levels and the volume of ascitis. Treatments with GHRP-6 or placebo were applied by the intraperitoneal route once daily. When treatments concluded, animals were sacrificed and blood serum and the liver were collected. Liver fragments were fixed in formalin neutral and processed by hematoxylin/eosin staining, or by Masson's trichromic staining, to evaluate the general damage and the severity of fibrotic indurations. Other fragments of liver tissues were stored at −70° C. until processing to determine the content of hydroxiproline by acid hydrolysis in 1N HCl, and also the intrahepatic levels of redox metabolism markers. Biochemical determinations were carried out by calculating the total protein content by the Bradford's method.

[2] = test system: hepatic fibrosis in male Wistar rats (CCl4); experiment: Reverting hepatic fibrosis induced by carbon tetrachloride (CCl4) in rats (Example 2); assay type: in vivo, rat; design: SODt (oxidative stress marker) / Catalase (oxidative stress marker) / HPT (oxidative stress marker) / MDA (oxidative stress marker): unit not given here; conditions: for GOT serum level / GPT serum level / OH—P Content (hydroxiproline) in the liver / Grade 0 (null) bridging fibro-proliferative reaction in liver, animals per group / Grade 1 (moderate, up to 25% of the slide), animals per group / Grade 2 (limited, up to 50% of the slide), animals per group / Grade 3 (severe, up to the 75% of the slide), animals per group / Grade 4 (very severe, over 75% of the slide), animals per group: four weeks; for GOT serum level / GPT serum level / OH—P Content (hydroxiproline) in the liver: end of treatment; for Grade 0 (null) bridging fibro-proliferative reaction in liver, animals per group / Grade 1 (moderate, up to 25% of the slide), animals per group / Grade 2 (limited, up to 50% of the slide), animals per group / Grade 3 (severe, up to the 75% of the slide), animals per group / Grade 4 (very severe, over 75% of the slide), animals per group: n = 15; for Catalase (oxidative stress marker) / HPT (oxidative stress marker) / MDA (oxidative stress marker) / SODt (oxidative stress marker): liver samples, end of the third week of treatment
Protocol: This experiment was conducted to evaluate the effect of the pharmaceutical composition containing the GHRP-6 on reverting hepatic fibrosis in rats, wherein said hepatic fibrosis was induced by carbon tetrachloride (CCl4). This is a hepatotoxic agent that causes chronic hepatitis and fibrosis after long-term administration. Hepatic fibrosis was induced in male Wistar rats of 250 g of body weight by intraperitoneally administered CCl4 50%/50% (v/v) in olive oil, twice per week during four weeks. After that time, 25% of the rats were sacrificed and subjected to blood biochemistry and pathological anatomy studies. […] The animals remaining were randomly distributed into three experimental groups of 15 rats each: (1) Control placebo group, receiving physiological saline solution, (2) Group receiving the GHRP-6 at a 100 μg/kg dosage, and (3) Group receiving the GHRP-6 at a 400 μg/kg dosage. […] Treatments were started immediately after the fibrosis established and the suspension of CCl4 administration. […] Liver fragments were fixed in formalin neutral and processed by hematoxylin/eosin staining, or by Masson's trichromic staining, to evaluate the general damage and the severity of fibrotic indurations. Other fragments of liver tissues were stored at −70° C. until processing to determine the content of hydroxiproline by acid hydrolysis in 1N HCl, and also the intrahepatic levels of redox metabolism markers. Biochemical determinations were carried out by calculating the total protein content by the Bradford's method. The response to the treatment with the pharmaceutical composition was characterized by determining the serum levels of GOT and GPT transaminases, histological criteria in quantitative scale and some markers distinctive of the levels of lipid peroxidation.

[3] = Dosage I: 100 μg/kg i.p. once daily, N = 16
[4] = Dosage I: 100 μg/kg i.p. once daily
[5] = Dosage II: 400 μg/kg i.p. once daily, N = 20
[6] = Dosage II: 400 μg/kg i.p. once daily
[7] = Dosage II: 400 μg/kg once daily

Substance: GHRP-6
- Grade 0 (null) hepatic fibrosis, animals per group [1, 3]: 5
- Grade 1 (moderate) hepatic fibrosis, animals per group [1, 3]: 9
- Grade 2 (limited) hepatic fibrosis, animals per group [1, 3]: 2
- Grade 3 (severe) hepatic fibrosis, animals per group [1, 3]: 0
- Grade 4 (very severe) hepatic fibrosis, animals per group [1, 3]: 0
- GGT serum level [1, 4]: 71.53 ± 22.14 U/I
- GOT serum level [1, 4]: 61.58 ± 16.10 IU/I
- GPT serum level [1, 4]: 81.71 ± 30.90 IU/I
- Content of OH—P (hydroxiproline) in liver [1, 3]: 56.71 ± 8.11 μg/g of total proteins
- Grade 0 (null) hepatic fibrosis, animals per group [1, 5]: 8
- Grade 1 (moderate) hepatic fibrosis, animals per group [1, 5]: 11
- Grade 2 (limited) hepatic fibrosis, animals per group [1, 5]: 1
- Grade 3 (severe) hepatic fibrosis, animals per group [1, 5]: 0
- Grade 4 (very severe) hepatic fibrosis, animals per group [1, 5]: 0
- GGT serum level [1, 6]: 25.56 ± 8.63 U/I
- GOT serum level [1, 6]: 30.41 ± 6.11 IU/I
- GPT serum level [1, 6]: 60.64 ± 19.87 IU/I
- Content of OH—P (hydroxiproline) in liver [1, 5]: 16.15 ± 1.025 μg/g of total proteins
- Deposit of collagenous and extracellular materials in liver parenchyma (overall result) ([1]; ligation of the common bile duct, morphological and biochemical data): eradicate and control the deposit of collagenous and extracellular materials in liver parenchyma
- Catalase (oxidative stress marker) ([1]; Dosage I: 100 μg/kg): 68.50 ± 12.73
- HPT (oxidative stress marker) ([1]; Dosage I: 100 μg/kg): 43.06 ± 1.83
- MDA (oxidative stress marker) ([1]; Dosage I: 100 μg/kg): 0.14 ± 0.02
- SODt (oxidative stress marker) ([1]; Dosage I: 100 μg/kg): 11058.07 ± 744.61
- Catalase (oxidative stress marker) ([1]; Dosage II: 400 μg/kg): 31.50 ± 4.3
- HPT (oxidative stress marker) ([1]; Dosage II: 400 μg/kg): 21.16 ± 1.71
- MDA (oxidative stress marker) ([1]; Dosage II: 400 μg/kg): 0.08 ± 0.01
- SODt (oxidative stress marker) ([1]; Dosage II: 400 μg/kg): 21029.87 ± 498.28
- GOT serum level ([2]; Dosage I: 100 μg/kg once daily): 56.31 ± 12.19 IU/l
- GPT serum level ([2]; Dosage I: 100 μg/kg once daily): 77.15 ± 22.66 IU/l
- OH—P Content (hydroxiproline) in the liver ([2]; Dosage I: 100 μg/kg once daily): 40.21 ± 3.54 μg/g of total proteins
- Grade 0 (null) bridging fibro-proliferative reaction in liver, animals per group ([2]; Dosage I: 100 μg/kg once daily): 0
- Grade 1 (moderate, up to 25% of the slide), animals per group ([2]; Dosage I: 100 μg/kg once daily): 9
- Grade 2 (limited, up to 50% of the slide), animals per group ([2]; Dosage I: 100 μg/kg once daily): 6*
- Grade 3 (severe, up to the 75% of the slide), animals per group ([2]; Dosage I: 100 μg/kg once daily): 0
- Grade 4 (very severe, over 75% of the slide), animals per group ([2]; Dosage I: 100 μg/kg once daily): 0
- GOT serum level [2, 7]: 28.18 ± 4.71 IU/l
- GPT serum level [2, 7]: 26.94 ± 12.42 IU/l
- OH—P Content (hydroxiproline) in the liver [2, 7]: 10.22 ± 4.33 μg/g of total proteins
- Grade 0 (null) bridging fibro-proliferative reaction in liver, animals per group [2, 7]: 8*
- Grade 1 (moderate, up to 25% of the slide), animals per group [2, 7]: 7
- Grade 2 (limited, up to 50% of the slide), animals per group [2, 7]: 0
- Grade 3 (severe, up to the 75% of the slide), animals per group [2, 7]: 0
- Grade 4 (very severe, over 75% of the slide), animals per group [2, 7]: 0
- Catalase (oxidative stress marker) ([2]; Dosage I: 100 μg/kg): 60.43 ± 11.81
- HPT (oxidative stress marker) ([2]; Dosage I: 100 μg/kg): 55.11 ± 2.77
- MDA (oxidative stress marker) ([2]; Dosage I: 100 μg/kg): 0.16 ± 1.16
- SODt (oxidative stress marker) ([2]; Dosage I: 100 μg/kg): 17632.08 ± 321.55
- Catalase (oxidative stress marker) ([2]; Dosage II: 400 μg/kg): 22.67 ± 3.56
- HPT (oxidative stress marker) ([2]; Dosage II: 400 μg/kg): 26.44 ± 2.43
- MDA (oxidative stress marker) ([2]; Dosage II: 400 μg/kg): 0.09 ± 0.01
- SODt (oxidative stress marker) ([2]; Dosage II: 400 μg/kg): 20187.87 ± 245.13
- Deposition of collagenous and extracellular matrix materials in the liver parenchyma (overall result) ([2]; repeated CCl4 administration): eradicate and control deposition of collagenous and extracellular matrix materials
- Hepatocytes death ([2]; repeated CCl4 administration): prevents individual, focal and pericentrolobular hepatocytes death
